This test concerns the target Hepatocyte growth factor receptor/Proto-oncogene tyrosine-protein kinase receptor Ret (Homo sapiens, UniProt P07949+P08581). Briefly: In Vitro c-Met Enzyme Assay. Here is the method:
The c-Met kinase activity as tested with enzyme-linked immunosorbent assays (ELISAs) as previously reported protocol [Qiang et al., Bioorg. Med. Chem., 24:3353-3358; Shi et al., Bioorg. Med. Chem., 22:4735-4744]. Briefly, reaction cocktail containing c-met kinase and various concentrations of measured compound or 0.1% DMSO (negative control) was incubated at 37 °C for five minutes. Then the mixture of ATP and substrate peptide was added and incubated for another 30 min. Afer that, the reaction was terminated and transferred into a pre-coated 96-well plate, and incubated for another 1 h at 37 °C. Phosphate-buffered saline (PBS) containing 0.1% Tween 20 (T-PBS) was applied to wash the plate three times. anti-phosphotyrosine (PY99) antibody was then added. Horseradish peroxidase-conjugated goat anti-mouse IgG was added after 30 min. Finally, the plate was analyzed with multi-well spectrophotometer at […].
Sequence of Hepatocyte growth factor receptor/Proto-oncogene tyrosine-protein kinase receptor Ret (P08581 whole entry): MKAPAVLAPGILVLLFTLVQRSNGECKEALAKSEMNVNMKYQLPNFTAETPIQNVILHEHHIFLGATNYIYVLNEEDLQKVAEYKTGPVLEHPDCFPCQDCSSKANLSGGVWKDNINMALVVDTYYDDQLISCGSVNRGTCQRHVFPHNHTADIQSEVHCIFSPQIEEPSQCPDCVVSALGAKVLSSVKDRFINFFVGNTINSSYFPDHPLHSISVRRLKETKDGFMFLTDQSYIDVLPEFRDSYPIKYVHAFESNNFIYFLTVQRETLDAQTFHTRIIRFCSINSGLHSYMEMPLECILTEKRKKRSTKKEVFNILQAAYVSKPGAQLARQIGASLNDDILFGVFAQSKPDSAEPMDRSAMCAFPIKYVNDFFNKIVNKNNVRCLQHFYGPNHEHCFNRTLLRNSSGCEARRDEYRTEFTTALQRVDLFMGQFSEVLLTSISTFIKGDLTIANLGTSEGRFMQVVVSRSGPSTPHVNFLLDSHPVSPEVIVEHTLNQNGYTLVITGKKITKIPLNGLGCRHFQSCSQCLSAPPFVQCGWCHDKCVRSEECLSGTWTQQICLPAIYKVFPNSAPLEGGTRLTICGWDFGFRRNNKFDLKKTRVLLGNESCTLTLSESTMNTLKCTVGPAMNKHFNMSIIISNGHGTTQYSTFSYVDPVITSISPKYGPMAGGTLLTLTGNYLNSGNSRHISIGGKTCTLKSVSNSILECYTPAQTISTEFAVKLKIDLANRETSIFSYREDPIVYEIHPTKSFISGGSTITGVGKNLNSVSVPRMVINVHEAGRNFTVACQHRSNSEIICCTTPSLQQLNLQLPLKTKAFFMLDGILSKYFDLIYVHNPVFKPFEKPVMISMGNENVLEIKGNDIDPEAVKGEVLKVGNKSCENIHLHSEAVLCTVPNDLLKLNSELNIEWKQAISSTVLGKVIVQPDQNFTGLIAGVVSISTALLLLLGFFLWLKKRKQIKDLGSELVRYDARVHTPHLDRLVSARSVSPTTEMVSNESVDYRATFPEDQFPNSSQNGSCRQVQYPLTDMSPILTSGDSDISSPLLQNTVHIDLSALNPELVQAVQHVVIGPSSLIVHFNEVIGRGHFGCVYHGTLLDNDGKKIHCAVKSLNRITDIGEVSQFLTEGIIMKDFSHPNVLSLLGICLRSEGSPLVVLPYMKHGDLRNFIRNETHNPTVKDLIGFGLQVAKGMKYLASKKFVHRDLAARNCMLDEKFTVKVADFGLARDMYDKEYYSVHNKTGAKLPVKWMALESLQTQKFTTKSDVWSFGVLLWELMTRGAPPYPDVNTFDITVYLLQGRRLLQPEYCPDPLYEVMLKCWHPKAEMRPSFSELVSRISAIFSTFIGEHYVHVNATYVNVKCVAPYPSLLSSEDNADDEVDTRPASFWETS
Sequence of Hepatocyte growth factor receptor/Proto-oncogene tyrosine-protein kinase receptor Ret (P07949 whole entry): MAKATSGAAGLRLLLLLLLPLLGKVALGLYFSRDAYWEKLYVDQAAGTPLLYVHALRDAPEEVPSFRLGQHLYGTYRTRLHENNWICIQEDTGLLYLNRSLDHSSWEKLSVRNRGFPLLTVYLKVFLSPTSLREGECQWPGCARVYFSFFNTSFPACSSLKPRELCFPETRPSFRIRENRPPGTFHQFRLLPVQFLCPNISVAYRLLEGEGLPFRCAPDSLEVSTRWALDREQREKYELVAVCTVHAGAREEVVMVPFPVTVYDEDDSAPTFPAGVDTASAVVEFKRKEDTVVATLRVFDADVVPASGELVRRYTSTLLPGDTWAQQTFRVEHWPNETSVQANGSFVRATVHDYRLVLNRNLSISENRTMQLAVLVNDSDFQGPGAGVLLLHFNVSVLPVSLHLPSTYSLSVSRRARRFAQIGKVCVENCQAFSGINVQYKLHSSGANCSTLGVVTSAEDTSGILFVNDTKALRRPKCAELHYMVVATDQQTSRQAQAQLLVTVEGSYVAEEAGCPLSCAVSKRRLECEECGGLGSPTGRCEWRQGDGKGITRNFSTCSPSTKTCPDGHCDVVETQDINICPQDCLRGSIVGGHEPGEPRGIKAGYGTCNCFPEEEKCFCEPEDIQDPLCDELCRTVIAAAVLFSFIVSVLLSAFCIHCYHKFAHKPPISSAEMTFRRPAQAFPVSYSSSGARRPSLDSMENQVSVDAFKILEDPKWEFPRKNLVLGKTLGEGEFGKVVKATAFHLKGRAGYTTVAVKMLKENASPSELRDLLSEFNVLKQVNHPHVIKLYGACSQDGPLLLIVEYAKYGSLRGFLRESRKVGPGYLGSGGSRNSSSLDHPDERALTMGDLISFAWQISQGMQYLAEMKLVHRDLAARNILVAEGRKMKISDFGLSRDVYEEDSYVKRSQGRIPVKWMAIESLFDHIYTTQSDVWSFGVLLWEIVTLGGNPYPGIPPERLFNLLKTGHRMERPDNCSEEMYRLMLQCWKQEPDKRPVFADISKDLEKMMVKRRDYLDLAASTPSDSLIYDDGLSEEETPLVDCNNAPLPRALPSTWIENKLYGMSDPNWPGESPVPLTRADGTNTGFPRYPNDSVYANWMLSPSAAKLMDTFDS
Usually IC50 stands for the concentration needed to halve the response being measured. A higher IC50 goes with weaker potency in that assay. Compound `Clc1ccc(Cl)c(-c2cn3cccc(COc4nnc5ccc(Cl)nn45)c3n2)c1` [6-chloro-3-((2-(2,5-dichlorophenyl)imidazo[1,2-a]pyridin-8-yl)methoxy)-[1,2,4]triazolo[4,3-b] pyridazine (7e)] had an IC50 of 12.3 µM.

In the case of `COc1ccc2c(OCc3nnc4ccc(-c5ccccc5)nn34)ccnc2c1` [7-methoxy-4-({6-phenyl-[1,2,4]triazolo[4,3-a]pyridazin-3-yl}methoxy)quinoline], the 50% inhibitory concentration (IC50) was found to be 0.06 µM.

On to `Clc1ccc(-c2cn3cccc(COc4nnc5ccc(Cl)nn45)c3n2)c(Cl)c1` [6-Chloro-3-((2-(2,4-dichlorophenyl)imidazo[1,2-a]pyridin-8-yl)methoxy)-[1,2,4]triazolo[4,3-b] pyridazine (7g)], for which the IC50 is 12.2 µM.

The values are drawn from BindingDB's records for doi:10.1016/j.bioorg.2016.12.002 (China Pharmaceutical University, 2017).
